Here are results for two compounds from patent US20140314752A1, “METHODS FOR TREATING CANCER USING TOR KINASE INHIBITOR COMBINATION THERAPY” (Signal Pharmaceuticals, LLC, priority 2013, published 2014).

Common to all, as to type: cell-based, human
For test [1], the system named is Lenalidomide-resistant H929 cell lines (H929 R10-1 through 4). Briefly: Anti-proliferative effect on lenalidomide-resistant H929 cell lines. The following applies: lenalidomide-resistant H929 lines with ~50% reduction in cereblon protein. How it is done:
Cell density and viability were monitored using the Vi-cell XR cell viability analyzer (Beckman Coulter). Once cell viability was >90% and cell density was ˜5×10^5 cells/mL (log phase), the cells were incubated at the indicated concentrations of a TOR kinase inhibitor and/or second active agent at a final concentration of 0.1% vehicle (DMSO). For combination studies, the TOR kinase inhibitor and the second active agent were simultaneously added to cells in triplicate. Cell proliferation was determined after 5 days of treatment by flow cytometry on unfixed cells and using 7-aminoactinomycin D (7AAD) (Molecular Probes, Carlsbad, Calif., USA) exclusion (0.25% final dye concentration) for viability assessment. Flow cytometry was utilized to gate on the target cells and to measure 7AAD negative and 7AAD positive cells. Stained cells were analyzed on a FACS Array flow cytometer with standard BD FACS Array System software (BDBiosciences, Palo Alto, Calif.). The percentage of surviving cells (7AAD negative) was calculated relative to cells treated with vehicle (DMSO) control. For single compound treatments (TOR kinase inhibitor and second active agents separately), the average values from triplicates were plotted to obtain IC50 values using software XLfit from IDBS. […]

Test [2] deals with lenalidomide-sensitive and resistant myeloma cell lines. Briefly: Combination effects in lenalidomide-sensitive and resistant myeloma cell lines. The following applies: multiple myeloma cell lines in vitro.
Source text: Cell lines and cell culture: Cell lines were purchased from American Type Culture Collection (ATCC) and maintained in culture medium recommended by ATCC. […] Multiple myeloma (MM) cell lines that were used or can be used include the following: NCI-H929, LP-1, MM1.s, U266B1, DF-15 and RPMI-8226 human MM-derived cell lines. The […] ® resistant cell lines H929/R1, H929/R2, H929/R3 and H929/R4 were established by continuous exposure of H929 parental cells (H929) to increasing concentrations of […] ® for a minimum of 5 months. The control cell line H929/D was established by continuous exposure of H929 parental cells to 0.1% DMSO.
The number of cells affected by compound treatment was normalized to the DMSO control (100% viability) and the data was imported into the CalcuSyn software (V2.1, Biosoft). Synergism was quantitated by the combination index (CI) using CalcuSyn according to Chou-Talalay's CI method with mathematical modeling and simulations. […] ED50 is the median effect dose at which a 50% growth inhibition is achieved.
Cell density and viability were monitored using the Vi-cell XR cell viability analyzer (Beckman Coulter). […] Cell proliferation was determined after 5 days of treatment by flow cytometry on unfixed cells and using 7-aminoactinomycin D (7AAD) (Molecular Probes, Carlsbad, Calif., USA) exclusion (0.25% final dye concentration) for viability assessment. […]
For test [3], the system named is SK-Hep-1 cells. Briefly: Anchorage independent growth (colony formation) assay. The following applies: single agent, concentrations of 0.1 to 100 μM. How it is done:
(§1) Cell Lines/Cells. Human cell lines HepG2 and SK-Hep-1 cells were obtained from American Type Culture Collection (ATCC; Manassas, Va.). Cells were cultured in DMEM (Dulbecco's Modified Eagle's Medium) (Mediatech; Mannasas, Va.) with 10% Premium FBS (Lonza, Walkersville, Md.).
(§2) (1) Single Agent Colony Formation Assay. Nobel Agar (1.2 grams; BD; Franklin Lakes, N.J.) was placed in a 100-mL sterile bottle. Sterile water (100 mL) was added and microwaved until the agar boiled. Equal volumes of agar and 2×RPMI medium (ECE Scientific; Doylestown, Pa.) were mixed and 300 μL were transferred to each well in a 24-well flat bottom plate (BD; Franklin Lakes, N.J.). Plates were kept at 4° C. until the agar solidified. Cultures of HepG2 and SK-Hep-1 cells were harvested and resuspended in culture medium at 3.6×10^3 cells/mL. Equal volumes of agar, 2×RPMI, and cell suspension (1:1:1) were mixed in a sterile tube and 500 μL/well were immediately transferred into the 24-well plates. Plates were kept at 4° C. until the agar solidified. Culture medium (500 μL) containing compound or DMSO was added to each well (final DMSO concentration for each treatment was 0.2%). Compound 1 was tested at final concentrations of 0.1, 0.3, 1, 3, 10 and 30 μM. […]
(§3) Significance versus the DMSO control was calculated using One Way ANOVA and Dunnett's Post test or unpaired t tests using GraphPad Prism v5.01.

Test [4] concerns HepG2 cells. The description is as above. The following applies: single agent, concentrations of 0.1 to 100 μM. How it is done:
as §1, §2, §3

In the case of `CO[C@H]1CC[C@H](N2C(=O)CNc3ncc(-c4ccc(C(C)(C)O)nc4)nc32)CC1` [Compound 1, 7-(6-(2-hydroxypropan-2-yl)pyridin-3-yl)-1-((1r,4r)-4-methoxycyclohexyl)-3,4-dihydropyrazino-[2,3-b]pyrazin-2(1H)-one], the “Anti proliferative effects, single agent” value in test [1] is reported as “potent anti proliferative effects”. Besides, in test [2], the “Dependence of activity on cereblon protein levels” value is given as “independent of cereblon protein levels”. The Anti-colony forming activity result is “dose-dependent and significant anti-colony forming activity” in test [3]; “dose-dependent and significant anti-colony forming activity” in test [4].

Regarding `CCN1C(=O)CNc2ncc(-c3ccc(-c4nc[nH]n4)nc3C)nc21` [Compound 2, 1-ethyl-7-(2-methyl-6-(1H-1,2,4-triazol-3-yl)pyridin-3-yl)-3,4-dihydropyrazino[2,3-b]pyrazin-2(1H)-one], the “Anti proliferative effects, single agent” value in test [1] was “potent anti proliferative effects”. In addition, in test [2], the “Dependence of activity on cereblon protein levels” value is on record as “independent of cereblon protein levels”.
